Results from patent US12275733B2, “Substituted pyrido[3,4-b]indoles for the treatment of cartilage disorders” (Sanofi, priority 2016, dated 2025).

Test system: ATDC5 cells
Test: Chondrogenesis activity assay in ATDC5 cells (collagen type II induction, immunofluorescence)
Type: cell-based, mouse
Settings: Mus musculus; for EC50: collagen type II induction in ATDC5 cells, concentration reaching 50% of maximum induction; for Emax: maximum percent induction of collagen type II relative to internal reference compound at 10 μM, ATDC5 cells
In short: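 Collagen type II was stained in fixed, permeabilized cells with an Alexa Fluor 488 secondary and measured by high-content fluorescence imaging. ATDC5 cells had 4 days at 37 °C in insulin-supplemented differentiation medium with compound, typically 40 nM–10 μM, 0.1% DMSO. DMSO wells and a 10 μM internal reference compound were used for normalization.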

Structure (SMILES) | EC50 | Emax
CC(C)c1nccc2c1[nH]c1c(-c3ccc(Cl)nc3Cl)cc(Cl)cc12 [Example 106, 6-Chloro-8-(2,6-dichloro-pyridin-3-yl)-1-isopropyl-9H-pyrido[3,4-b]indole] | > 10000 nM | 20 to 50%
Cc1nccc2c1[nH]c1c(-c3ccc(-n4ccccc4=O)nc3)cc(Cl)cc12 [Example 107, 5′-(6-Chloro-1-methyl-9H-pyrido[3,4-b]indol-8-yl)-[1,2′]bipyridinyl-2-one] | 560 nM | 20 to 50%
Cc1cc(-c2ccc(Cl)nc2Cl)c2[nH]c3c(C)nccc3c2c1 [Example 108, 8-(2,6-Dichloro-pyridin-3-yl)-1,6-dimethyl-9H-pyrido[3,4-b]indole] | 1400 nM | > 80%
Cc1nccc2c1[nH]c1c(-c3ccc(N4CCNC(=O)C4)nc3)cc(Cl)cc12 [Example 109, 4-[5-(6-Chloro-1-methyl-9H-pyrido[3,4-b]indol-8-yl)-pyridin-2-yl]-piperazin-2-one] | 720 nM | 50 to 80%
Cc1nccc2c1[nH]c1c(-c3ccc(N4CCOC4=O)nc3)cc(Cl)cc12 [Example 110, 3-[5-(6-Chloro-1-methyl-9H-pyrido[3,4-b]indol-8-yl)-pyridin-2-yl]-oxazolidin-2-one] | > 10000 nM | 20 to 50%
COCCn1c2cnccc2c2cc(Cl)cc(-c3ccc(Cl)nc3Cl)c21 [Example 111, 6-Chloro-8-(2,6-dichloro-pyridin-3-yl)-9-(2-methoxy-ethyl)-9H-pyrido[3,4-b]indole] | 1800 nM | 50 to 80%
FC(F)(F)Cn1c2cnccc2c2cc(Cl)cc(-c3cnn(Cc4ccncc4)c3)c21 [Example 112, 6-Chloro-8-(1-pyridin-4-ylmethyl-1H-pyrazol-4-yl)-9-(2,2,2-trifluoro-ethyl)-9H-pyrido[3,4-b]indole] | 490 nM | > 80%
COc1ccc(-c2cc(Cl)cc3c2[nH]c2c(C)nccc23)c(N)n1 [Example 113, 3-(6-Chloro-1-methyl-9H-pyrido[3,4-b]indol-8-yl)-6-methoxy-pyridin-2-ylamine] | 780 nM | > 80%
Cn1c(-c2cc(Cl)cc3c4ccncc4n(CC(F)(F)F)c23)cnc1Cl [Example 114, 6-Chloro-8-(2-chloro-3-methyl-3H-imidazol-4-yl)-9-(2,2,2-trifluoro-ethyl)-9H-pyrido[3,4-b]indole] | 5700 nM | 20 to 50%
Cc1nccc2c1[nH]c1c(-c3cnn(Cc4cccnc4)c3)cc(Cl)cc12 [Example 115, 6-Chloro-1-methyl-8-(1-pyridin-3-ylmethyl-1H-pyrazol-4-yl)-9H-pyrido[3,4-b]indole] | 490 nM | > 80%
CSc1ccc(-c2cc(Cl)cc3c2[nH]c2c(C)nccc23)cn1 [Example 120, 6-Chloro-1-methyl-8-(6-methylsulfanyl-pyridin-3-yl)-9H-pyrido[3,4-b]indole] | 1400 nM | 50 to 80%
CCn1c2c(-c3cnn(Cc4ccc(C)nc4C)c3)cc(Cl)cc2c2ccnc(C)c21 [Example 121, 6-Chloro-8-[1-(2,6-dimethyl-pyridin-3-ylmethyl)-1H-pyrazol-4-yl]-9-ethyl-1-methyl-9H-pyrido[3,4-b]indole] | 590 nM | > 80%
CCn1c2cnccc2c2cc(Cl)cc(-c3ccncc3)c21 [Example 123, 6-Chloro-9-ethyl-8-pyridin-4-yl-9H-pyrido[3,4-b]indole] | 260 nM | 20 to 50%
CCn1c2cnccc2c2cc(Cl)cc(-c3ccco3)c21 [Example 124, 6-Chloro-9-ethyl-8-furan-2-yl-9H-pyrido[3,4-b]indole] | 2600 nM | < 20%
CCn1c2c(-c3ccncc3)cc(Cl)cc2c2ccnc(C)c21 [Example 125, 6-Chloro-9-ethyl-1-methyl-8-pyridin-4-yl-9H-pyrido[3,4-b]indole] | 1000 nM | > 80%
FC(F)(F)Cn1c2cnccc2c2cc(Cl)cc(-c3cncnc3)c21 [Example 126, 6-Chloro-8-pyrimidin-5-yl-9-(2,2,2-trifluoro-ethyl)-9H-pyrido[3,4-b]indole] | > 10000 nM | 20 to 50%
FC(F)(F)Cn1c2cnccc2c2cc(Cl)cc(-c3ccncc3)c21 [Example 127, 6-Chloro-8-pyridin-4-yl-9-(2,2,2-trifluoro-ethyl)-9H-pyrido[3,4-b]indole] | 380 nM | 50 to 80%
FC(F)(F)Cn1c2cnccc2c2cc(Cl)cc(-c3ccccc3)c21 [Example 128, 6-Chloro-8-phenyl-9-(2,2,2-trifluoro-ethyl)-9H-pyrido[3,4-b]indole] | 3900 nM | < 20%
FC(F)(F)Cn1c2cnccc2c2cc(Cl)cc(-c3ccc(Cl)cc3)c21 [Example 129, 6-Chloro-8-(4-chloro-phenyl)-9-(2,2,2-trifluoro-ethyl)-9H-pyrido[3,4-b]indole] | 860 nM | > 80%
Cc1nccc2c1[nH]c1c(-c3ccncc3)cc(Cl)cc12 [Example 130, 6-Chloro-1-methyl-8-pyridin-4-yl-9H-pyrido[3,4-b]indole] | 380 nM | > 80%

Structure (SMILES) | EC50 | Emax
CCn1c2cnccc2c2cc(Cl)cc(-c3ccc(Cl)cc3)c21 [Example 131, 6-Chloro-8-(4-chloro-phenyl)-9-ethyl-9H-pyrido[3,4-b]indole] | 780 nM | > 80%
Nc1ncc(-c2cc(Cl)cc3c4ccncc4n(CC(F)(F)F)c23)cn1 [Example 132, 5-[6-Chloro-9-(2,2,2-trifluoro-ethyl)-9H-pyrido[3,4-b]indol-8-yl]-pyrimidin-2-ylamine] | 4500 nM | 20 to 50%
CCn1c2cnccc2c2cc(Cl)cc(-c3cncnc3)c21 [Example 133, 6-Chloro-9-ethyl-8-pyrimidin-5-yl-9H-pyrido[3,4-b]indole] | > 10000 nM | 20 to 50%
FC(F)(F)Cn1c2cnccc2c2cc(Cl)cc(-c3ccc(Cl)s3)c21 [Example 134, 6-Chloro-8-(5-chloro-thiophen-2-yl)-9-(2,2,2-trifluoro-ethyl)-9H-pyrido[3,4-b]indole] | > 10000 nM | < 20%
Cn1cc(-c2cc(Cl)cc3c4ccncc4n(CC(F)(F)F)c23)cn1 [Example 135, 6-Chloro-8-(1-methyl-1H-pyrazol-4-yl)-9-(2,2,2-trifluoro-ethyl)-9H-pyrido[3,4-b]indole] | 330 nM | 50 to 80%
FC(F)(F)Cn1c2cnccc2c2cc(Cl)cc(-c3cc(-c4ccccc4)no3)c21 [Example 136, 6-Chloro-8-(3-phenyl-isoxazol-5-yl)-9-(2,2,2-trifluoro-ethyl)-9H-pyrido[3,4-b]indole] | 4100 nM | 50 to 80%
CC(C)Cn1cc(-c2cc(Cl)cc3c4ccncc4n(CC(F)(F)F)c23)cn1 [Example 137, 6-Chloro-8-(1-isobutyl-1H-pyrazol-4-yl)-9-(2,2,2-trifluoro-ethyl)-9H-pyrido[3,4-b]indole] | 1400 nM | 20 to 50%
Cc1nn(C)c(C)c1-c1cc(Cl)cc2c3ccncc3n(CC(F)(F)F)c12 [Example 138, 6-Chloro-9-(2,2,2-trifluoro-ethyl)-8-(1,3,5-trimethyl-1H-pyrazol-4-yl)-9H-pyrido[3,4-b]indole] | > 10000 nM | < 20%
FC(F)(F)Cn1c2cnccc2c2cc(Cl)cc(-c3cnn4ccccc34)c21 [Example 139, 6-Chloro-8-pyrazolo[1,5-a]pyridin-3-yl-9-(2,2,2-trifluoro-ethyl)-9H-pyrido[3,4-b]indole] | > 10000 nM | < 20%
Cc1cc(-c2cc(Cl)cc3c4ccncc4n(CC(F)(F)F)c23)n(C)n1 [Example 140, 6-Chloro-8-(2,5-dimethyl-2H-pyrazol-3-yl)-9-(2,2,2-trifluoro-ethyl)-9H-pyrido[3,4-b]indole] | 910 nM | 20 to 50%
Clc1cc(-c2cncnc2)c2[nH]c3cnccc3c2c1 [Example 141, 6-Chloro-8-pyrimidin-5-yl-9H-pyrido[3,4-b]indole] | > 10000 nM | < 20%
CCn1c2cnccc2c2cc(Cl)cc(-c3ccc(OC)cc3)c21 [Example 142, 6-Chloro-9-ethyl-8-(4-methoxy-phenyl)-9H-pyrido[3,4-b]indole] | 520 nM | > 80%
CCn1c2cnccc2c2cc(Cl)cc(-c3ccc(C)cc3)c21 [Example 143, 6-Chloro-9-ethyl-8-p-tolyl-9H-pyrido[3,4-b]indole] | 970 nM | 20 to 50%
FC(F)(F)Cn1c2cnccc2c2cc(Cl)cc(-c3cn[nH]c3)c21 [Example 144, 6-Chloro-8-(1H-pyrazol-4-yl)-9-(2,2,2-trifluoro-ethyl)-9H-pyrido[3,4-b]indole] | 580 nM | < 20%
CCn1c2cnccc2c2cc(Cl)cc(-c3ccccc3Cl)c21 [Example 145, 6-Chloro-8-(2-chloro-phenyl)-9-ethyl-9H-pyrido[3,4-b]indole] | 480 nM | < 20%
CCn1c2cnccc2c2cc(Cl)cc(-c3cccc(OC)c3)c21 [Example 146, 6-Chloro-9-ethyl-8-(3-methoxy-phenyl)-9H-pyrido[3,4-b]indole] | 41 nM | < 20%
CCn1c2c(-c3ccc(OC)cc3)cc(Cl)cc2c2ccnc(C)c21 [Example 147, 6-Chloro-9-ethyl-8-(4-methoxy-phenyl)-1-methyl-9H-pyrido[3,4-b]indole] | 840 nM | > 80%
CCn1c2c(-c3ccc(Cl)cc3)cc(Cl)cc2c2ccnc(C)c21 [Example 148, 6-Chloro-8-(4-chloro-phenyl)-9-ethyl-1-methyl-9H-pyrido[3,4-b]indole] | 46 nM | > 80%
Cc1ccc(-c2cc(Cl)cc3c2[nH]c2c(C)nccc23)cc1 [Example 150, 6-Chloro-1-methyl-8-p-tolyl-9H-pyrido[3,4-b]indole] | 510 nM | > 80%
